Data taken from patent US20110207685A1, “Oral Formulations of Chemotherapeutic Agents” (priority 2008, published 2011).
Converted amounts (≈) assume the structure as drawn. Where two headings read alike, the source gives them in different places.

How the values were obtained:
physchem = conditions: phosphate buffer (control for the cyclodextrin mixtures), aqueous buffer
[1] = free drug; cited from earlier work
[2] = Tolerance study (Step 1), relative body weight; type: in vivo, nude mice; conditions: oral IRN alone group (100 mg/kg po qd×5)
Method: When subcutaneous HT29 xenografts are detectable and reach a mean tumor volume of 150 mm3, groups of mice are randomly affected to the treatments. Mice without tumors were eliminated.
Mice in the control group received vehicle under a 750 μl volume.
Toxicity of the different treatments are determined as: body weight loss percent (% BWL max)=100−(mean BWx/mean BW1x 100), where BWx is the mean BW at the day of maximal loss during the treatment and BW1 is the mean BW on the 1st day of treatment.
All animals are weighted during the whole treatment period, in order to adjust the volume of drug administration and to calculate the percent body weight loss due to the different treatments.

[3] = Oral MTTD (tolerance) study on xenografted mice; type: in vivo; conditions: for Clinical symptoms: po, J = 1 to 5, mice with s.c. HT-29 tumor
Method: A tolerance and efficacy study on xenografted mice, in order to mimic as close as possible the in vivo model of colonic tumor, was carried out. As xenografted mice are very sensitive, the MTTD and efficacy study was done on mice with a subcutaneously implanted HT-29 colorectal human tumor cells.

in vivo = conditions: mouse, plasma
Method: Three mice were used per time-point. Only one sampling was performed on the control group.

HT29 cells = assay: In vitro cytotoxicity on HT29 cells; type: cell-based; conditions: Homo sapiens
[4] = MTTD study, one administration per week during three weeks; type: in vivo, mice; conditions: J = 0, 7, 14
Method: The schedule of the MTTD studies was one administration per week during three weeks. Each dose was tested on a group of 3 animals and the animals were monitored for 2 weeks after the end of the last treatment, clinical toxicity signs were observed and the animals weight taken every two days.

Structure (SMILES): CC(=O)O[C@@]12CO[C@@H]1C[C@H](O)[C@@]1(C)C(=O)[C@H](O)C3=C(C)[C@@H](OC(=O)[C@H](O)[C@@H](NC(=O)OC(C)(C)C)c4ccccc4)C[C@@](O)([C@@H](OC(=O)c4ccccc4)[C@H]21)C3(C)C [docetaxel]
- solubility (physchem): 1.9 ± 0.1 µg/mL (≈ 2.35 µM)

Structure (SMILES): COc1cccc2c1C(=O)c1c(O)c3c(c(O)c1C2=O)C[C@@](O)(C(=O)CO)C[C@@H]3O[C@H]1C[C@H](N)[C@H](O)[C@H](C)O1 [doxorubicin, Doxorubicin]
- oral bioavailability compare to i. v. bioavailability [1]: about 5%

Structure (SMILES): CCc1c2c(nc3ccc(OC(=O)N4CCC(N5CCCCC5)CC4)cc13)-c1cc3c(c(=O)n1C2)COC(=O)[C@]3(O)CC [IRN, Irinotecan]
- body weight loss [2]: more than 15%
- toxicity / tolerance ([3]; orally every day for 5 days, xenografted mice): induced an important weight loss
- Clinical symptoms ([3]; 100 mg/kg BW): Weight loss, but mice
- Clinical symptoms ([3]; 200 mg/kg BW): Important weight loss
- AUC (in vivo; iv, 20 mg/kg): 1280 ng·h/mL
- bioavailability (in vivo; oral, 100 mg/Kg): 27.1%
- AUC (in vivo; po, 100 mg/kg): 1740 ng·h/mL
- Cmax (in vivo; po, 100 mg/kg): 477 ng/mL
- Tmax (in vivo; po, 100 mg/kg): 2.06 h
- IC50 (HT29 cells; HT-29, 96 h, read-out: IC50 [IRN], experiment GF411, HT29 cells, 4 days contact, as IRN concentration): 0.75 µg/mL (≈ 1.28 µM)
- IC50 (HT29 cells; HT-29, 96 h, read-out: IC50 [IRN], experiment GF464, HT29 cells, 4 days contact, as IRN concentration): 0.8 µg/mL (≈ 1.36 µM)
- IC50 (HT29 cells; HT-29, 96 h, read-out: IC50 [IRN], experiment GF522, HT29 cells, 4 days contact, as IRN concentration): 0.85 µg/mL (≈ 1.45 µM)
- IC50 (HT29 cells; HT-29, read-out: Mean IC 50 [IRN], mean of three experiments, HT29 cells, as IRN concentration): 0.8 µg/mL (≈ 1.36 µM)
- Clinical symptoms ([4]; iv, 25 mg/kg BW): No clinical sign
- Clinical symptoms ([4]; po, 200 mg/kg BW): No clinical sign
